Measured values: US10981932B2, “Macrocyclic indole derivatives” (Bayer Aktiengesellschaft, priority 2016, dated 2021)
Several values for one entry are separate records, joined by “and”; a condition that tells them apart may be missing. Equal values may be shown once. Read-outs that look alike come from different tables or passages of the source.

Key:
SUDHL10 [1] = test: Induction of caspase-3/7 activity (Caspase-Glo 3/7), SUDHL10; assay type: cell-based; conditions: caspase-3/7 induction, SUDHL10 cells, 3 h treatment, median
How it was run: (§1)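 Caspase-Glo 3/7 luminescence measured after 3 h compound exposure at 37 °C in SUDHL10 and SUDHL5 cells. EC50 values come from background-corrected signals, with curve bottom set to 1 and plateau set to maximal induction by the reference compound.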

MCL-1 = MCL-1 (Homo sapiens, UniProt Q07820); test: Protein-protein interaction assay MCL-1/Noxa BH3 peptide (MCL-1 assay), TR-FRET; assay type: binding; conditions: MBP-MCL-1 / Noxa BH3-derived peptide, median
Chain of MCL-1 (Q07820 whole entry): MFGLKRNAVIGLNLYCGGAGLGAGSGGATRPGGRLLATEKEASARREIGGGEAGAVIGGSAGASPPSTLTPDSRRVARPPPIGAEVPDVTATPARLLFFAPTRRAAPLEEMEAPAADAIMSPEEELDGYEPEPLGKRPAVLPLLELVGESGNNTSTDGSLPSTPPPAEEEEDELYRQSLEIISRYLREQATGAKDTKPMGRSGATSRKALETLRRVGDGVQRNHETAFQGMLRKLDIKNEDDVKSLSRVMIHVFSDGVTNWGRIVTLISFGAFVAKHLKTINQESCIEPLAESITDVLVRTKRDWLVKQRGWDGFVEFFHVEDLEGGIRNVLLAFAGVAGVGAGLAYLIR
How it was run: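 MBP-MCL-1 (1 nM final) was preincubated 10 min at 22 °C with compounds (11 concentrations, 0.1 nM–20 μM, duplicates) in Tris pH 7 buffer with NaCl, KF, Tween-20, DTT and BGG. After 1 h at 22 °C in the dark plus overnight at 4 °C, anti-MBP Eu-cryptate/streptavidin-XL665 TR-FRET was read; IC50 came from a 4-parameter fit.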

A2780 = test: Anti-proliferative effect (CellTiter-Glo, 72 h), A2780; assay type: cell-based; conditions: A2780 cells, median, read-out: IC50 antiproliferation assay A2780 [M] (median)
How it was run: (§2)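 CellTiter-Glo luminescence readout of viability, taken on a time-zero plate at day 0 and on treated plates after 72 h incubation at 37 °C in a humidified incubator. Reagent incubation 10 min before reading.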

SUDHL5 [2] = test: Induction of caspase-3/7 activity (Caspase-Glo 3/7), SUDHL5; assay type: cell-based; conditions: caspase-3/7 induction, SUDHL5 cells, 3 h treatment, median
How it was run: as §1

OPM2 = test: Anti-proliferative effect (CellTiter-Glo, 72 h), OPM2; assay type: cell-based; conditions: OPM2 cells, median, read-out: IC50 antiproliferation assay OPM2 [M] (median)
Experimental: Assessment of the Anti-Proliferative Effect of Compounds in Different Cell Lines
The impact of compounds on the proliferation of different cell lines was assessed using the CellTiter-Glo® Luminescent Cell Viability reagent from Promega (G7573). Of note, SUDHL10 and SUDHL5 (DLBCL), NCI-H929 (Multiple Myeloma), A2780 (ovarian carcinoma) as well as MV-4-11(AML) cells are sensitive to MCL-1 inhibition.
In parallel, cells were plated in a reference (day 0) plate for time zero determination.
Rim wells were excluded. The cells were incubated for 72 h hours in a humidified incubator at 37° C. The day 0 plate was measured by adding 30 μl/well of CTG solution (CellTiter-Glo® Luminescent Cell Viability reagent, Promega G7573) to time zero wells in the reference plate followed by a 10 minutes incubation and luminescence reading at 0.1 ms, using the PHERAstar FS microplate reader (BMG Labtech).
After 72 h incubation, the treated plates were measured in the same way as the day 0 plate mentioned above.

SUDHL10 [3] = test: Induction of cytotoxicity (CellTiter-Glo, 5 h), SUDHL10
SUDHL5 [4] = test: Induction of cytotoxicity (CellTiter-Glo, 5 h), SUDHL5
SUDHL10 [5] = test: Anti-proliferative effect (CellTiter-Glo, 72 h), SUDHL10; assay type: cell-based; conditions: SUDHL10 cells, antiproliferation, median, read-out: Antiproli SUDHL10 [M] (median)
How it was run: as §2

SUDHL5 [6] = test: Anti-proliferative effect (CellTiter-Glo, 72 h), SUDHL5; assay type: cell-based; conditions: SUDHL5 cells, antiproliferation, median, read-out: Antiproli SUDHL5 [M] (median)
How it was run: as §2

[7] = Homo sapiens, SU-DHL10, 5 h, read-out: Cytotox SUDHL10 [M] (median), SUDHL10 cells, cytotoxicity induction, CellTiter-Glo, 5 h incubation, median
[8] = Homo sapiens, SU-DHL-5, 5 h, read-out: Cytotox SUDHL5 [M] (median), SUDHL5 cells, cytotoxicity induction, CellTiter-Glo, 5 h incubation, median
[9] = Homo sapiens, SU-DHL10, 72 h, 72 h incubation
[10] = read-out: Cytotox SUDHL10 [M] (median), SUDHL10 cells, cytotoxicity induction, CellTiter-Glo, 5 h incubation, median
[11] = read-out: Cytotox SUDHL5 [M] (median), SUDHL5 cells, cytotoxicity induction, CellTiter-Glo, 5 h incubation, median
[12] = read-out: Cytotox SUDHL10 [M] (median), SUDHL10 cells, cytotoxicity induction, CellTiter-Glo, 5 h, median
[13] = read-out: Cytotox SUDHL5 [M] (median), SUDHL5 cells, cytotoxicity induction, CellTiter-Glo, 5 h, median

| Compound | EC50 (SUDHL10 [1]; Homo sapiens, SU-DHL10, 3 h) [µM] | IC50 (MCL-1) [µM] | IC50 (A2780; Homo sapiens, A2780, 72 h) [M] | EC50 (SUDHL5 [2]; Homo sapiens, SU-DHL-5, 3 h) [µM] | IC50 (SUDHL10 [5]; [9]) [M] | EC50 (SUDHL10 [1]) [µM] | IC50 (SUDHL10 [5]; 72 h incubation) | EC50 (SUDHL5 [2]) [µM] | IC50 (SUDHL5 [6]; Homo sapiens, SU-DHL-5, 72 h, 72 h incubation) [M] | IC50 (A2780) [M] | IC50 (SUDHL5 [6]; 72 h) [M] | IC50 (SUDHL10 [5]; 72 h) [M] | IC50 (OPM2; Homo sapiens, OPM-2, 72 h) [M] | IC50 (SUDHL10 [3]; [7]) [M] | IC50 (SUDHL5 [4]; [8]) [M] | IC50 (SUDHL10 [3]; [10]) [M] | IC50 (SUDHL5 [4]; [11]) [M] | IC50 (OPM2) [M] | IC50 (SUDHL10 [3]; [12]) [M] | IC50 (SUDHL5 [4]; [13]) [M] |
| --- | --- | --- | --- | --- | --- | --- | --- | --- | --- | --- | --- | --- | --- | --- | --- | --- | --- | --- | --- | --- |
| CC(C)OCc1nn(C)c2c1-c1cccc3c(CCCOc4cccc5ccccc45)c(C(=O)O)n(c13)C/C=C\COC2 (racemic) [Example 1-68, (rac)-(11Z)-1-methyl-7-[3-(naphthalen-1-yloxy)propyl]-3-[(propan-2-yloxy)methyl]-1,10,13,15-tetrahydropyrazolo[4′,3′:9,10][1,6]oxazacycloundecino[8,7,6-hi]indole-8-carboxylic Acid] | > 33 | 0.0269 | 2.87e-05 | > 33 |  |  |  |  |  |  |  |  | > 3.3e-05 |  |  |  |  |  |  |  |
| Cc1nn(C)c2c1-c1cccc3c(CCCOc4cccc5ccccc45)c(C(=O)O)n(c13)CCN(c1ccccc1)C2 (racemic) [Example 1-101, (rac)-8,10-Dimethyl-1-[3-(1-naphthyloxy)propyl]-6-phenyl-5,6,7,8-tetrahydro-4H-pyrazolo[3′,4′:6,7][1,4]diazonino[8,9,1-hi]indole-2-carboxylic Acid] | > 33 | 0.319 | 1.97e-05 | > 33 | 1.05e-05 |  |  |  |  |  |  |  | > 3.3e-05 | > 3.3e-05 | > 3.3e-05 |  |  |  |  |  |
| COc1cc2cc(c1)-c1cccc3c(CCCOc4cccc5c4CCCC5)c(C(=O)O)n(c13)CCOCCO2 (racemic) [Example 1-118, (rac)-12-Methoxy-1-[3-(5,6,7,8-tetrahydronaphthalen-1-yloxy)propyl]-4,57,8-tetrahydro-10,14-(metheno)[1,4,7]dioxazacyclotetradecino[9,8,7-hi]indole-2-carboxylic Acid] | > 33 | 2.18 | 3.25e-05 | > 33 | 2.2e-05 |  |  |  |  |  |  |  | > 3.3e-05 | > 3.3e-05 | > 3.3e-05 |  |  |  |  |  |
| CC(=O)N1CCN(c2ccc(OCc3nn(C)c4c3-c3cccc5c(CCCOc6cccc7ccccc67)c(C(=O)O)n(c35)CCCCOC4)cc2)CC1 (single isomer, unassigned; enantiomer 1) [Example 1-25, 3-{[4-(4-acetylpiperazin-1-yl)phenoxy]methyl}-1-methyl-7-[3-(naphthalen-1-yloxy)propyl]-1,10,11,12,13,15-hexahydropyrazolo[4′,3′:9,10][1,6]oxazacycloundecino[8,7,6-hi]indole-8-carboxylic Acid (Enantiomer 1)] |  | 0.131 | 1.7e-05 |  |  | 3.89 |  | 1.61 | 2.86e-05 |  |  |  |  |  |  | 4.02e-06 | 2.68e-06 | 1.08e-05 |  |  |
| COCC(=O)N1CCN(c2ccc(OCc3nn(C)c4c3-c3cccc5c(CCCOc6cccc7ccccc67)c(C(=O)O)n(c35)CCCCOC4)cc2)CC1 (single isomer, unassigned; enantiomer 1) [Example 1-28, 3-({4-[4-(methoxyacetyl)piperazin-1-yl]phenoxy}methyl)-1-methyl-7-[3-(naphthalen-1-yloxy)propyl]-1,10,11,12,13,15-hexahydropyrazolo[4′,3′:9,10][1,6]oxazacycloundecino[8,7,6-hi]indole-8-carboxylic Acid (Enantiomer 1)] |  | 0.0709 | 3.12e-05 |  |  | > 33 |  | > 33 |  |  |  |  |  |  |  | > 3.3e-05 | > 3.3e-05 | 1.98e-05 |  |  |
| Cn1nc(CN2CCCC2)c2c1COCCCCn1c(C(=O)O)c(CCCOc3cccc4ccccc34)c3cccc-2c31 (single isomer, unassigned; enantiomer 2) [Example 337, 1-methyl-7-[3-(naphthalen-1-yloxy)propyl]-3-(pyrrolidin-1-ylmethyl)-1,10,11,12,13,15-hexahydropyrazolo[4′3′:9,10][1,6]oxazacycloundecino[8,7,6-hi]indole-carboxylic Acid (Enantiomer 2)] |  | 0.977 |  |  |  | > 33 |  | > 33 |  | > 3.3e-05 | 1.97e-05 | > 3.3e-05 |  |  |  |  |  |  | > 3.3e-05 | > 3.3e-05 |
| CC(=O)NCc1nn(C)c2c1-c1cccc3c(CCCOc4cccc5ccccc45)c(C(=O)O)n(c13)CCCCOC2 (single isomer, unassigned; enantiomer 2) [Example 341, 3-[(acetylamino)methyl]-1-methyl-7-[3-(naphthalen-1-yloxy)propyl]-1,10,11,12,13,15-hexahydropyrazolo[4′3′:9,10][1,6]oxazacycloundecino[8,7,6-hi]indole-cararboxylic Acid (Enantiomer 2)] |  | 0.651 |  |  |  | > 33 |  | > 33 |  | > 3.3e-05 | 6.48e-06 | > 3.3e-05 |  |  |  |  |  |  | > 3.3e-05 | 2.64e-05 |

These reach a lower IC50 (MCL-1). Values come first.

| EC50 (SUDHL10 [1]; Homo sapiens, SU-DHL10, 3 h) [µM] | IC50 (MCL-1) [µM] | IC50 (A2780; Homo sapiens, A2780, 72 h) [M] | EC50 (SUDHL5 [2]; Homo sapiens, SU-DHL-5, 3 h) [µM] | IC50 (SUDHL10 [5]; [9]) [M] | EC50 (SUDHL10 [1]) [µM] | IC50 (SUDHL10 [5]; 72 h incubation) | EC50 (SUDHL5 [2]) [µM] | IC50 (SUDHL5 [6]; Homo sapiens, SU-DHL-5, 72 h, 72 h incubation) [M] | IC50 (A2780) [M] | IC50 (SUDHL5 [6]; 72 h) [M] | IC50 (SUDHL10 [5]; 72 h) [M] | Compound | IC50 (OPM2; Homo sapiens, OPM-2, 72 h) [M] | IC50 (SUDHL10 [3]; [7]) [M] | IC50 (SUDHL5 [4]; [8]) [M] | IC50 (SUDHL10 [3]; [10]) [M] | IC50 (SUDHL5 [4]; [11]) [M] | IC50 (OPM2) [M] | IC50 (SUDHL10 [3]; [12]) [M] | IC50 (SUDHL5 [4]; [13]) [M] |
| --- | --- | --- | --- | --- | --- | --- | --- | --- | --- | --- | --- | --- | --- | --- | --- | --- | --- | --- | --- | --- |
| > 33 | 0.02 | 1.82e-05 | > 33 | 1.31e-05 |  |  |  |  |  |  |  | CC(C)OCc1nn(C)c2c1-c1cccc3c(CCCOc4cccc5ccccc45)c(C(=O)O)n(c13)CCCN(C)C2 (racemic) [Example 1-70, (rac)-7,9-dimethyl-1-[3-(naphthalen-1-yloxy)propyl]-11-[(propan-2-yloxy)methyl]-4,5,6,7,8,9-hexahydropyrazolo[3′,4′:78][1,5]diazecino[9,10,1-hi]indole-2-carboxylic Acid] | 1.22e-05 | 2.78e-05 | > 3.3e-05 |  |  |  |  |  |
|  | 0.00943 | 1.22e-05 |  |  | 8.47 | 9.23e-06 M and 1.76e-05 M | 6.15 |  |  |  |  | COC1(c2ccc(OCc3nn(C)c4c3-c3cccc5c(CCCOc6cccc7ccccc67)c(C(=O)O)n(c35)CCCCOC4)cc2)CCOCC1 (single isomer, unassigned) [Example 1-66, 3-{[4-(4-methoxytetrahydro-2H-pyran-4-yl)phenoxy]methyl}-1-methyl-7-[3-(naphthalen-1-yloxy)propyl]-1,10,11,12,13,15-hexahydropyrazolo[4′,3′:9,10][1,6]oxazacycloundecino[8,7,6-hi]indole-8-carboxylic Acid] | 1.18e-05 |  |  |  |  |  |  |  |
|  | 0.00163 |  |  |  | > 33 |  | > 33 |  | 2.48e-05 |  |  | CC(=O)N1CCN(c2ccc(OCc3nn(C)c4c3-c3cccc5c(CCCOc6cccc7ccccc67)c(C(=O)O)n(c35)CCCCOC4)cc2)CC1 (single isomer, unassigned; enantiomer 2) [Example 1-26, 3-{[4-(4-acetylpiperazin-1-yl)phenoxy]methyl}-1-methyl-7-[3-(naphthalen-1-yloxy)propyl]-1,10,11,12,13,15-hexahydropyrazolo[4′,3′:9,10][1,6]oxazacycloundecino[8,7,6-hi]indole-8-carboxylic Acid (Enantiomer 2)] |  |  |  | > 3.3e-05 | > 3.3e-05 | 2e-06 |  |  |
